The values below come from patent US10119097B2, “Organic compounds” (GIVAUDAN SA, priority 2014, dated 2018).

In data set [1] the test system is rat hepatocytes. Put plainly: in vitro metabolism in rat hepatocytes in suspension, benzoic acid derivative formation by GC-MS. Format: in vitro ADME. To be noted: incubated with hepatocytes isolated from rats; substantially no = below the limit of detection, i.e. <1%. The text has this: Decrease of Lilial™ and the compound released by the precursor of the present invention, and formation of the corresponding benzoic acid derivative may be analysed by GC-MS.
By “substantially no benzoic acid derivative” is meant that the concentration of said derivative is below the limit of detection, i.e. <1%. As such, the fragrance precursor releasing 3-(4-isobutyl-2-methylphenyl)propanal provides perfumers with an eminently suitable surrogate for the valuable yet problematic Lilial™.

Data set [2] concerns guinea-pigs. Particulars: guinea pig, in vivo; cited from earlier work.
In data set [3] the test system is mice. To be noted: mouse, in vivo; cited from earlier work.
For data set [4], the system named is primates. To be noted: cited from earlier work.

Take `Cc1cc(CC(C)C)ccc1CCC=O` [3-(4-isobutyl-2-methylphenyl)propanal]: the “formation of the corresponding benzoic acid derivative” value in data set [1] was “forms no, or substantially no, corresponding benzoic acid derivative”.
For `CC(C=O)Cc1ccc(C(C)(C)C)cc1` (stereo not shown) [Lilial™, 3-(4-tert-butylphenyl)-2-methylpropanal], the toxic effects result in data set [2], in data set [3] and in data set [4] was “No effects were found” throughout.
